Measured values as given in the NIST ThermoML archive (doi:10.1021/je500395f).

Conditions: Fluid (supercritical or subcritical phases), Coaxial cylinder method

CCC [propane]
Conditions | thermal conductivity [W/m/K]
375.1 K, 4950 kPa | 0.06533
375.1 K, 5040 kPa | 0.06533
375.1 K, 5140 kPa | 0.0653
375.1 K, 5160 kPa | 0.06529
375.1 K, 5226 kPa | 0.06525
375.1 K, 5322 kPa | 0.06576
375.1 K, 5580 kPa | 0.06644
375.1 K, 5830 kPa | 0.06691
375.1 K, 6480 kPa | 0.06842
375.1 K, 6540 kPa | 0.06846
375.1 K, 7140 kPa | 0.06958
375.1 K, 8020 kPa | 0.07114
375.1 K, 8950 kPa | 0.07271
375.1 K, 9500 kPa | 0.07355
375.1 K, 9700 kPa | 0.0739
375.1 K, 10360 kPa | 0.075
375.9 K, 3110 kPa | 0.03373
375.9 K, 3134 kPa | 0.0338
375.9 K, 3250 kPa | 0.03412
375.9 K, 3300 kPa | 0.03433
375.9 K, 3550 kPa | 0.03563
375.9 K, 3600 kPa | 0.03595
375.9 K, 3800 kPa | 0.03747
375.9 K, 4000 kPa | 0.03934
375.9 K, 4050 kPa | 0.03986
375.9 K, 4125 kPa | 0.04091
375.9 K, 4250 kPa | 0.04345
375.9 K, 4350 kPa | 0.04589
375.9 K, 4400 kPa | 0.04729
375.9 K, 4450 kPa | 0.04877
375.9 K, 4510 kPa | 0.05175
375.9 K, 4540 kPa | 0.0535
375.9 K, 4560 kPa | 0.05503
375.9 K, 4570 kPa | 0.05607
375.9 K, 4580 kPa | 0.05714
375.9 K, 4590 kPa | 0.05826
375.9 K, 4600 kPa | 0.05949
375.9 K, 4620 kPa | 0.06128
375.9 K, 4630 kPa | 0.06278
375.9 K, 4640 kPa | 0.06448
375.9 K, 4650 kPa | 0.06572
375.9 K, 4660 kPa | 0.06701
375.9 K, 4670 kPa | 0.06835
375.9 K, 4680 kPa | 0.06967
375.9 K, 4690 kPa | 0.07058
375.9 K, 4700 kPa | 0.07156
375.9 K, 4720 kPa | 0.07283
375.9 K, 4740 kPa | 0.07257
375.9 K, 4760 kPa | 0.07206
375.9 K, 4780 kPa | 0.07106
375.9 K, 4800 kPa | 0.0705
375.9 K, 4820 kPa | 0.06995
375.9 K, 4840 kPa | 0.06936
375.9 K, 4880 kPa | 0.06835
375.9 K, 4950 kPa | 0.06708
375.9 K, 5050 kPa | 0.06621
375.9 K, 5100 kPa | 0.0662
375.9 K, 5200 kPa | 0.06603
375.9 K, 5250 kPa | 0.06588
375.9 K, 5500 kPa | 0.06634
375.9 K, 5550 kPa | 0.06631
375.9 K, 5700 kPa | 0.06671
375.9 K, 5820 kPa | 0.06682
375.9 K, 5900 kPa | 0.06696
375.9 K, 6000 kPa | 0.06714
375.9 K, 6200 kPa | 0.06746
375.9 K, 6800 kPa | 0.06884
375.9 K, 7200 kPa | 0.0696
375.9 K, 7800 kPa | 0.07056
375.9 K, 8500 kPa | 0.072
375.9 K, 9000 kPa | 0.07288
375.9 K, 9190 kPa | 0.07314
375.9 K, 9806 kPa | 0.07405
375.9 K, 10000 kPa | 0.07439
375.9 K, 11000 kPa | 0.07591
375.9 K, 11028 kPa | 0.07597
375.9 K, 11500 kPa | 0.0765
375.9 K, 12000 kPa | 0.07724
375.9 K, 13000 kPa | 0.07845
381 K, 3253 kPa | 0.03426
381 K, 3260 kPa | 0.03429
381 K, 3320 kPa | 0.03451
381 K, 3428 kPa | 0.03498
381 K, 3580 kPa | 0.03558
381 K, 3820 kPa | 0.03665
381 K, 3880 kPa | 0.03705
381 K, 4040 kPa | 0.03825
381 K, 4100 kPa | 0.0389
381 K, 4220 kPa | 0.04027
381 K, 4520 kPa | 0.04459
381 K, 4560 kPa | 0.04539
381 K, 4600 kPa | 0.04618
381 K, 4660 kPa | 0.04756
381 K, 4740 kPa | 0.04988
381 K, 4780 kPa | 0.05126
381 K, 4800 kPa | 0.05187
381 K, 4860 kPa | 0.05418
381 K, 4880 kPa | 0.05506
381 K, 4900 kPa | 0.05594
381 K, 4920 kPa | 0.05685
381 K, 4960 kPa | 0.05866
381 K, 5000 kPa | 0.06046
381 K, 5020 kPa | 0.06124
381 K, 5040 kPa | 0.06198
381 K, 5060 kPa | 0.06268
381 K, 5100 kPa | 0.06374
381 K, 5150 kPa | 0.06448
381 K, 5200 kPa | 0.06448
381 K, 5250 kPa | 0.06475
381 K, 5300 kPa | 0.06444
381 K, 5350 kPa | 0.06439
381 K, 5390 kPa | 0.06427
381 K, 5450 kPa | 0.06435
381 K, 5550 kPa | 0.06436
381 K, 5700 kPa | 0.06435
381 K, 5900 kPa | 0.06423
381 K, 6200 kPa | 0.06503
381 K, 6500 kPa | 0.06554
381 K, 6900 kPa | 0.0664
381 K, 7162 kPa | 0.06699
381 K, 7300 kPa | 0.06714
381 K, 7583 kPa | 0.06767
381 K, 9036 kPa | 0.07035
381 K, 10110 kPa | 0.07235
381 K, 11000 kPa | 0.07371
381 K, 12000 kPa | 0.07531
381 K, 14750 kPa | 0.07855
